Reference: US20100267561A1, “HERBICIDAL PYRIDAZINONE DERIVATIVES” (priority 2007, published 2010)

Experiments:
Type in all cases: in vivo
[1] = tested on: ducksalad (Heteranthera limosa); experiment: Test B flooded paddy test plant response
Procedure, shortened: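 Step one: raise plants to 2 leaves. Step two: flood pots 3 cm over the soil and apply compound into the water, keeping this depth. Step three: after 13–15 greenhouse days, score visually versus controls, 0–100, where 100 means complete control.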

[2] = tested on: bermudagrass (Cynodon dactylon); experiment: Test B pre-/postemergence plant response
Procedure, shortened: (§1)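 Preemergence and postemergence (plants 2-18 cm, 1- to 4-leaf stage) applications used test chemicals in a non-phytotoxic solvent with surfactant. Plants were held in a greenhouse 13 to 15 days, then rated visually against controls on a 0-100 scale (0 no effect, 100 complete control).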

[3] = tested on: wheat (Triticum aestivum); experiment: Test B pre-/postemergence plant response
Procedure, shortened: as §1

[4] = tested on: common ragweed (Ambrosia elation); experiment: Test B pre-/postemergence plant response
Procedure, shortened: as §1

[5] = tested on: lambsquarters (Chenopodium album); experiment: Test B pre-/postemergence plant response
Procedure, shortened: as §1

[6] = tested on: surinam grass (Brachiaria decumbens); experiment: Test B pre-/postemergence plant response
Procedure, shortened: as §1

[7] = tested on: large crabgrass (Digitaria sanguinalis); experiment: Test B pre-/postemergence plant response
Procedure, shortened: as §1

corn (Zea mays) = experiment: Test B pre-/postemergence plant response
Procedure, shortened: as §1

soybean (Glycine max) = experiment: Test B pre-/postemergence plant response
Procedure, shortened: as §1

[8] = tested on: cocklebur (Xanthium strumarium); experiment: Test B pre-/postemergence plant response
Procedure, shortened: as §1

kochia (Kochia scoparia) = experiment: Test B pre-/postemergence plant response
Procedure, shortened: as §1

[9] = tested on: common (oilseed) sunflower (Helianthus annuus); experiment: Test B pre-/postemergence plant response; settings: Preemergence
Procedure, shortened: as §1

[10] = tested on: goosegrass (Eleusine indica); experiment: Test B pre-/postemergence plant response
Procedure, shortened: as §1

[11] = Flood (flooded paddy test), 62 g ai/ha, scale 0 to 100, 0 no effect, 100 complete control
[12] = Flood (flooded paddy test), 125 g ai/ha, scale 0 to 100, 0 no effect, 100 complete control
[13] = Flood (flooded paddy test), 250 g ai/ha, scale 0 to 100, 0 no effect, 100 complete control
[14] = Flood, 31 g ai/ha, scale 0 to 100
[15] = Postemergence, 16 g ai/ha, scale 0 to 100
[16] = Postemergence, 31 g ai/ha, scale 0 to 100, 0 no effect, 100 complete control
[17] = Postemergence, 62 g ai/ha, scale 0 to 100
[18] = Postemergence, 125 g ai/ha, scale 0 to 100
[19] = Preemergence, 16 g ai/ha, scale 0 to 100 (0 no effect, 100 complete control)
[20] = Preemergence, 31 g ai/ha, 0 to 100 scale, 0 no effect, 100 complete control
[21] = Preemergence, 62 g ai/ha, scale 0 to 100
[22] = Preemergence, 125 g ai/ha, scale 0 to 100
[23] = 31 g ai/ha, 0 to 100 scale, 0 no effect, 100 complete control
[24] = Postemergence, 250 g ai/ha, scale 0 to 100
[25] = Preemergence, 250 g ai/ha, scale 0 to 100

Compound: CCc1cc(-c2ccc(C(F)(F)F)cc2)nn1-c1c(OC(=O)OC(C)C)cnn(C)c1=O [Compound 12]
- Plant response rating, Ducksalad [1, 11]: 0
- Plant response rating, Ducksalad [1, 12]: 40
- Plant response rating, Ducksalad [1, 13]: 50
- Plant response rating, Ducksalad [1, 14]: 0
- Plant response rating, Bermudagrass [2, 15]: 100
- Plant response rating, Bermudagrass [2, 16]: 100
- Plant response rating, Bermudagrass [2, 17]: 100
- Plant response rating, Bermudagrass [2, 18]: 100
- Plant response rating, Bermudagrass [2, 19]: 100
- Plant response rating, Bermudagrass [2, 20]: 100
- Plant response rating, Bermudagrass [2, 21]: 100
- Plant response rating, Bermudagrass [2, 22]: 100
- Plant response rating, Wheat [3, 15]: 90
- Plant response rating, Wheat [3, 16]: 95
- Plant response rating, Wheat [3, 17]: 95
- Plant response rating, Wheat [3, 18]: 100
- Plant response rating, Wheat [3, 19]: 20
- Plant response rating, Wheat [3, 20]: 90
- Plant response rating, Wheat [3, 21]: 95
- Plant response rating, Wheat [3, 22]: 95
- Plant response rating, Ragweed [4, 15]: 0
- Plant response rating, Ragweed [4, 16]: 0
- Plant response rating, Ragweed [4, 17]: 0
- Plant response rating, Ragweed [4, 18]: 0
- Plant response rating, Ragweed [4, 19]: 0
- Plant response rating, Ragweed [4, 20]: 0
- Plant response rating, Ragweed [4, 21]: 0
- Plant response rating, Ragweed [4, 22]: 0
- Plant response rating, Lambsquarters [5, 15]: 0
- Plant response rating, Lambsquarters [5, 16]: 0
- Plant response rating, Lambsquarters [5, 17]: 0
- Plant response rating, Lambsquarters [5, 18]: 40
- Plant response rating, Lambsquarters [5, 19]: 0
- Plant response rating, Lambsquarters [5, 20]: 0
- Plant response rating, Lambsquarters [5, 22]: 0
- Plant response rating, Surinam Grass [6, 15]: 100
- Plant response rating, Surinam Grass [6, 16]: 100
- Plant response rating, Surinam Grass [6, 17]: 100
- Plant response rating, Surinam Grass [6, 18]: 100
- Plant response rating, Surinam Grass [6, 19]: 100
- Plant response rating, Surinam Grass [6, 20]: 100
- Plant response rating, Surinam Grass [6, 21]: 100
- Plant response rating, Surinam Grass [6, 22]: 100
- Plant response rating, Crabgrass, Large [7, 15]: 100
- Plant response rating, Crabgrass, Large [7, 16]: 100
- Plant response rating, Crabgrass, Large [7, 17]: 100
- Plant response rating, Crabgrass, Large [7, 18]: 100
- Plant response rating, Crabgrass, Large [7, 19]: 100
- Plant response rating, Crabgrass, Large [7, 20]: 100
- Plant response rating, Crabgrass, Large [7, 21]: 100
- Plant response rating, Crabgrass, Large [7, 22]: 100
- Plant response rating, Corn (corn (Zea mays); [15]): 100
- Plant response rating, Corn (corn (Zea mays); [16]): 100
- Plant response rating, Corn (corn (Zea mays); [17]): 100
- Plant response rating, Corn (corn (Zea mays); [18]): 100
- Plant response rating, Corn (corn (Zea mays); [19]): 70
- Plant response rating, Corn (corn (Zea mays); [20]): 75
- Plant response rating, Corn (corn (Zea mays); [21]): 95
- Plant response rating, Corn (corn (Zea mays); [22]): 95
- Plant response rating, Soybean (soybean (Glycine max); [15]): 0
- Plant response rating, Soybean (soybean (Glycine max); [16]): 0
- Plant response rating, Soybean (soybean (Glycine max); [17]): 0
- Plant response rating, Soybean (soybean (Glycine max); [18]): 0
- Plant response rating, Soybean (soybean (Glycine max); [19]): 0
- Plant response rating, Soybean (soybean (Glycine max); [20]): 0
- Plant response rating, Soybean (soybean (Glycine max); [21]): 0
- Plant response rating, Soybean (soybean (Glycine max); [22]): 0
- Plant response rating, Cocklebur [8, 15]: 0
- Plant response rating, Cocklebur [8, 16]: 0
- Plant response rating, Cocklebur [8, 17]: 0
- Plant response rating, Cocklebur [8, 18]: 0
- Plant response rating, Cocklebur [8, 19]: 0
- Plant response rating, Cocklebur [8, 20]: 0
- Plant response rating, Cocklebur [8, 21]: 0
- Plant response rating, Cocklebur [8, 22]: 0
- Plant response rating, Kochia (kochia (Kochia scoparia); [15]): 0
- Plant response rating, Kochia (kochia (Kochia scoparia); [16]): 0
- Plant response rating, Kochia (kochia (Kochia scoparia); [17]): 0
- Plant response rating, Kochia (kochia (Kochia scoparia); [18]): 0
- Plant response rating, Kochia (kochia (Kochia scoparia); [19]): 0
- Plant response rating, Kochia (kochia (Kochia scoparia); [20]): 0
- Plant response rating, Kochia (kochia (Kochia scoparia); [21]): 0
- Plant response rating, Kochia (kochia (Kochia scoparia); [22]): 0
- Plant response rating, Sunflower ([9]; 16 g ai/ha, scale 0 to 100 (0 no effect, 100 complete control)): 0
- Plant response rating, Sunflower [9, 23]: 0
- Plant response rating, Sunflower ([9]; 62 g ai/ha, scale 0 to 100): 0
- Plant response rating, Sunflower ([9]; 125 g ai/ha, scale 0 to 100): 0
- Plant response rating, Goosegrass [10, 15]: 100
- Plant response rating, Goosegrass [10, 16]: 100
- Plant response rating, Goosegrass [10, 17]: 100
- Plant response rating, Goosegrass [10, 18]: 100
- Plant response rating, Goosegrass [10, 19]: 40
- Plant response rating, Goosegrass [10, 20]: 98
- Plant response rating, Goosegrass [10, 21]: 100
- Plant response rating, Goosegrass [10, 22]: 100

Compound: Cc1cc(-c2ccc(Br)cc2)nn1-c1c(OC(=O)C2CC2)cnn(C)c1=O [Compound 5]
- Plant response rating, Ducksalad [1, 11]: 40
- Plant response rating, Ducksalad [1, 12]: 50
- Plant response rating, Ducksalad [1, 13]: 65
- Plant response rating, Ducksalad [1, 14]: 30
- Bermudagrass plant response rating ([2]; 250 g ai/ha, preemergence, 0-100 scale): 100
- Plant response rating, Bermudagrass [2, 16]: 100
- Plant response rating, Bermudagrass [2, 17]: 100
- Plant response rating, Bermudagrass [2, 18]: 100
- Plant response rating, Bermudagrass [2, 24]: 100
- Plant response rating, Bermudagrass [2, 20]: 98
- Plant response rating, Bermudagrass [2, 21]: 100
- Plant response rating, Bermudagrass [2, 22]: 100
- Plant response rating, Wheat [3, 16]: 90
- Plant response rating, Wheat [3, 17]: 100
- Plant response rating, Wheat [3, 18]: 100
- Plant response rating, Wheat [3, 24]: 100
- Plant response rating, Wheat [3, 20]: 30
- Plant response rating, Wheat [3, 21]: 70
- Plant response rating, Wheat [3, 22]: 95
- Plant response rating, Wheat [3, 25]: 98
- Plant response rating, Ragweed [4, 16]: 0
- Plant response rating, Ragweed [4, 17]: 0
- Plant response rating, Ragweed [4, 18]: 60
- Plant response rating, Ragweed [4, 24]: 65
- Plant response rating, Ragweed [4, 20]: 0
- Plant response rating, Ragweed [4, 21]: 0
- Plant response rating, Ragweed [4, 22]: 0
- Plant response rating, Ragweed [4, 25]: 10
- Plant response rating, Lambsquarters [5, 16]: 0
- Plant response rating, Lambsquarters [5, 17]: 20
- Plant response rating, Lambsquarters [5, 18]: 80
- Plant response rating, Lambsquarters [5, 24]: 80
- Plant response rating, Lambsquarters [5, 22]: 90
- Plant response rating, Lambsquarters [5, 25]: 100
- Plant response rating, Surinam Grass [6, 16]: 100
- Plant response rating, Surinam Grass [6, 17]: 100
- Plant response rating, Surinam Grass [6, 18]: 100
- Plant response rating, Surinam Grass [6, 24]: 100
- Plant response rating, Surinam Grass [6, 20]: 100
- Plant response rating, Surinam Grass [6, 21]: 100
- Plant response rating, Surinam Grass [6, 22]: 100
- Plant response rating, Surinam Grass [6, 25]: 100
- Plant response rating, Crabgrass, Large [7, 16]: 100
- Plant response rating, Crabgrass, Large [7, 17]: 100
- Plant response rating, Crabgrass, Large [7, 18]: 100
- Plant response rating, Crabgrass, Large [7, 24]: 100
- Plant response rating, Crabgrass, Large [7, 20]: 100
- Plant response rating, Crabgrass, Large [7, 21]: 100
- Plant response rating, Crabgrass, Large [7, 22]: 100
- Plant response rating, Crabgrass, Large [7, 25]: 100
- Plant response rating, Corn (corn (Zea mays); [16]): 90
- Plant response rating, Corn (corn (Zea mays); [17]): 100
- Plant response rating, Corn (corn (Zea mays); [18]): 100
- Plant response rating, Corn (corn (Zea mays); [24]): 100
- Plant response rating, Corn (corn (Zea mays); [20]): 95
- Plant response rating, Corn (corn (Zea mays); [21]): 95
- Plant response rating, Corn (corn (Zea mays); [22]): 98
- Plant response rating, Corn (corn (Zea mays); [25]): 100
- Plant response rating, Soybean (soybean (Glycine max); [16]): 0
- Plant response rating, Soybean (soybean (Glycine max); [17]): 50
- Plant response rating, Soybean (soybean (Glycine max); [18]): 65
- Plant response rating, Soybean (soybean (Glycine max); [24]): 70
- Plant response rating, Soybean (soybean (Glycine max); [20]): 0
- Plant response rating, Soybean (soybean (Glycine max); [21]): 0
- Plant response rating, Soybean (soybean (Glycine max); [22]): 0
- Plant response rating, Cocklebur [8, 16]: 0
- Plant response rating, Cocklebur [8, 17]: 0
- Plant response rating, Cocklebur [8, 18]: 0
- Plant response rating, Cocklebur [8, 24]: 20
- Plant response rating, Cocklebur [8, 20]: 0
- Plant response rating, Cocklebur [8, 21]: 0
- Plant response rating, Cocklebur [8, 22]: 0
- Plant response rating, Kochia (kochia (Kochia scoparia); [16]): 0
- Plant response rating, Kochia (kochia (Kochia scoparia); [17]): 0
- Plant response rating, Kochia (kochia (Kochia scoparia); [18]): 0
- Plant response rating, Kochia (kochia (Kochia scoparia); [24]): 70
- Plant response rating, Kochia (kochia (Kochia scoparia); [21]): 50
- Plant response rating, Kochia (kochia (Kochia scoparia); [22]): 50
- Plant response rating, Kochia (kochia (Kochia scoparia); [25]): 60
- Plant response rating, Sunflower [9, 23]: 0
- Plant response rating, Sunflower ([9]; 62 g ai/ha, scale 0 to 100): 0
- Plant response rating, Sunflower ([9]; 125 g ai/ha, scale 0 to 100): 0
- Plant response rating, Sunflower ([9]; 250 g ai/ha, scale 0 to 100): 0
- Plant response rating, Goosegrass [10, 16]: 95
- Plant response rating, Goosegrass [10, 17]: 95
- Plant response rating, Goosegrass [10, 18]: 100
- Plant response rating, Goosegrass [10, 24]: 100
- Plant response rating, Goosegrass [10, 20]: 75
- Plant response rating, Goosegrass [10, 21]: 100
- Plant response rating, Goosegrass [10, 22]: 100
- Plant response rating, Goosegrass [10, 25]: 100
